How the values were obtained:
Assay in all cases: KINOMEscan
Assay type in all cases: binding
Conditions in all cases: read-out: %Ctrl @ 1000 nM
[1] = target: T1, MST1R (Homo sapiens, UniProt Q04912)
T1 construct: purchased DiscoveRx KINOMEscan

[2] = target: T2, FGFR2 (Homo sapiens, UniProt P21802)
T2 construct: purchased DiscoveRx KINOMEscan

[3] = target: T3, EGFR(L858R) (Homo sapiens, UniProt P00533, L858R)
T3 construct: purchased DiscoveRx KINOMEscan

[4] = target: T4, RPS6KA4(Kin.Dom.1-N-terminal) (Homo sapiens, UniProt O75676)
T4 construct: RPS6KA4(Kin.Dom.1-N-terminal); purchased DiscoveRx KINOMEscan

[5] = target: T5, IRAK4 (Homo sapiens, UniProt Q9NWZ3)
T5 construct: purchased DiscoveRx KINOMEscan

[6] = target: T6, GRK4 (Homo sapiens, UniProt P32298)
T6 construct: purchased DiscoveRx KINOMEscan

[7] = target: T7, ARK5 (Homo sapiens, UniProt O60285)
T7 construct: purchased DiscoveRx KINOMEscan
T7 sequence (O60285 whole entry): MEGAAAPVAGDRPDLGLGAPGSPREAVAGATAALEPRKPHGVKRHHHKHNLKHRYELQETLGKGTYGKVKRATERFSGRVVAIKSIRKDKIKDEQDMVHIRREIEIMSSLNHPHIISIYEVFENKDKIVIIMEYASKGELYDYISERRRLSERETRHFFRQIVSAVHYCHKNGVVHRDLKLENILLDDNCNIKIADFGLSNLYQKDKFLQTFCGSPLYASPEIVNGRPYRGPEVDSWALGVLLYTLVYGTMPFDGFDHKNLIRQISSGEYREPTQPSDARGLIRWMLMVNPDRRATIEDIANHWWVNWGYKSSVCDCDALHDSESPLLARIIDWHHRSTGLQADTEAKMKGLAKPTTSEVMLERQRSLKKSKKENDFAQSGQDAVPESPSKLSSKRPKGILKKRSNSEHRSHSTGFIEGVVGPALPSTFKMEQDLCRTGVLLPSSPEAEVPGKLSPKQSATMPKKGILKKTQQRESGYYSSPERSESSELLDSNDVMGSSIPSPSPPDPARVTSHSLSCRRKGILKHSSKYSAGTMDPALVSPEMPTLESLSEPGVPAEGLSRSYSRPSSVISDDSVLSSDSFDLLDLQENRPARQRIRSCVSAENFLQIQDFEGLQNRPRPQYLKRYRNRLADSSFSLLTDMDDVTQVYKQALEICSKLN

[8] = target: T8, HIPK1 (Homo sapiens, UniProt Q86Z02)
T8 construct: purchased DiscoveRx KINOMEscan

[9] = target: T9, WNK1 (Homo sapiens, UniProt Q9H4A3)
T9 construct: purchased DiscoveRx KINOMEscan

[10] = target: T10, PIM1 (Homo sapiens, UniProt P11309)
T10 construct: purchased DiscoveRx KINOMEscan
T10 sequence (P11309 whole entry): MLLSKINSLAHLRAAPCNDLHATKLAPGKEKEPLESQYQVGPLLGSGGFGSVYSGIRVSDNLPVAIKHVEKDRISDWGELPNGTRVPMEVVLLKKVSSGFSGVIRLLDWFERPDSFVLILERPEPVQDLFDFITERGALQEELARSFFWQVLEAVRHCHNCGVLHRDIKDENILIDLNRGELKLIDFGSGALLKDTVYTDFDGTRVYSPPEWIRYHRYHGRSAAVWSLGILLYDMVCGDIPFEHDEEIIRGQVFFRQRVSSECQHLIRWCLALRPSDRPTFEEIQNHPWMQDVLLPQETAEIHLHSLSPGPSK

[11] = target: T11, PRKCD (Homo sapiens, UniProt Q05655)
T11 construct: purchased DiscoveRx KINOMEscan

[12] = target: T12, PAK7 (Homo sapiens, UniProt Q9P286)
T12 construct: purchased DiscoveRx KINOMEscan

[13] = target: T13, JAK2(JH1domain-catalytic) (Homo sapiens, UniProt O60674)
T13 construct: JAK2(JH1domain-catalytic); purchased DiscoveRx KINOMEscan

[14] = target: T14, FGR (Homo sapiens, UniProt P09769)
T14 construct: purchased DiscoveRx KINOMEscan
T14 sequence (P09769 whole entry): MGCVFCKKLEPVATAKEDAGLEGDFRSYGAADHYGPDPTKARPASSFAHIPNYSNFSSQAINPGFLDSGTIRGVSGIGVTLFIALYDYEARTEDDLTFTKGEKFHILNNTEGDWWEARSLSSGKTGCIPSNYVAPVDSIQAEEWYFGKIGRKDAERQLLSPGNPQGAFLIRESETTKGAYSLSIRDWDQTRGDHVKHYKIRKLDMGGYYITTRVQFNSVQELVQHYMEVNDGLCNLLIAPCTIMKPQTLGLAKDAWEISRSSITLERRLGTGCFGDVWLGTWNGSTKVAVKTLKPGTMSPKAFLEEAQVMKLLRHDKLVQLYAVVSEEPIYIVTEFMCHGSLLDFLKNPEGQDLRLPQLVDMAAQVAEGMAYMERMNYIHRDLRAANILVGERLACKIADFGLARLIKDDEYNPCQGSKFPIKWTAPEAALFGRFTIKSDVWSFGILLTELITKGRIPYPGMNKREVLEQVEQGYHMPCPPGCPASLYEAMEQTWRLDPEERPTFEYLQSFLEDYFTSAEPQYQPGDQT

[15] = target: T15, MYO3B (Homo sapiens, UniProt Q8WXR4)
T15 construct: purchased DiscoveRx KINOMEscan

[16] = target: T16, PCTK3 (Homo sapiens, UniProt Q07002)
T16 construct: purchased DiscoveRx KINOMEscan
T16 sequence (Q07002 whole entry): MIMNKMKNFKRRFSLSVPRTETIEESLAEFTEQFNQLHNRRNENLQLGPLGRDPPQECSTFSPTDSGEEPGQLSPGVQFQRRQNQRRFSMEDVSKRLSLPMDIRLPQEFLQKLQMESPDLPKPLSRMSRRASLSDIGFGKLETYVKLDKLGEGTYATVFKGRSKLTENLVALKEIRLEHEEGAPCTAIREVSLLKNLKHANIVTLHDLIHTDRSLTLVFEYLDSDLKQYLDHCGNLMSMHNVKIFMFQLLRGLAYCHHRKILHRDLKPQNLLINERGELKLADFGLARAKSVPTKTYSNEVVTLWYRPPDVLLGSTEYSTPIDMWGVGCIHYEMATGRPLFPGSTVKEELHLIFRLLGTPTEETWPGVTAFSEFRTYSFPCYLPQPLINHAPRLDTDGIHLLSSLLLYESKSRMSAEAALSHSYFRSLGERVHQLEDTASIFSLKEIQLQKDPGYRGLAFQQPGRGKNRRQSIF

[17] = target: T17, EPHA1 (Homo sapiens, UniProt P21709)
T17 construct: purchased DiscoveRx KINOMEscan

[18] = target: T18, GRK1 (Homo sapiens, UniProt Q15835)
T18 construct: purchased DiscoveRx KINOMEscan

[19] = target: T19, TTK (Homo sapiens, UniProt P33981)
T19 construct: purchased DiscoveRx KINOMEscan
T19 sequence (P33981 whole entry): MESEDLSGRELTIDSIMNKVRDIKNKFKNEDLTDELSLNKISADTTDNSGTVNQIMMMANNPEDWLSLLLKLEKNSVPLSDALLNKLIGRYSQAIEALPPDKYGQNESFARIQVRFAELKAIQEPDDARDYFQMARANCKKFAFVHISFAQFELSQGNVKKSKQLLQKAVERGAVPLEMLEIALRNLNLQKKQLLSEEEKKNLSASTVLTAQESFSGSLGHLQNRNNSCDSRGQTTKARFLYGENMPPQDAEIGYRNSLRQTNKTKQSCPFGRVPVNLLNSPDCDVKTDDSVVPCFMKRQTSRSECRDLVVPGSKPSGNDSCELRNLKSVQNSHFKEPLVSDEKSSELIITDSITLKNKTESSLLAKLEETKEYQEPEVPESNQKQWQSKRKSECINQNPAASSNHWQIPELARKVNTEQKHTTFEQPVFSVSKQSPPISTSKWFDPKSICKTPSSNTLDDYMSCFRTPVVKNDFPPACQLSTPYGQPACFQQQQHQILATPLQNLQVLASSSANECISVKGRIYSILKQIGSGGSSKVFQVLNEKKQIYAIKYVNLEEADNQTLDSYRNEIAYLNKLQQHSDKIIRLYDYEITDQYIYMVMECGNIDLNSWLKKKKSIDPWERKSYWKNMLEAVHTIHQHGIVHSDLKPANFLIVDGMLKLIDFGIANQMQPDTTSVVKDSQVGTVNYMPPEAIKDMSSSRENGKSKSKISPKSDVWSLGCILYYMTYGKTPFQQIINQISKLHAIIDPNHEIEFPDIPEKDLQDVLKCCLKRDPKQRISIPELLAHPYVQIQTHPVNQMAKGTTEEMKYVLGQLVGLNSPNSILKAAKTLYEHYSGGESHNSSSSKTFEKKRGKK

[20] = target: T20, JNK3 (Homo sapiens, UniProt P53779)
T20 construct: purchased DiscoveRx KINOMEscan
T20 sequence (P53779 whole entry): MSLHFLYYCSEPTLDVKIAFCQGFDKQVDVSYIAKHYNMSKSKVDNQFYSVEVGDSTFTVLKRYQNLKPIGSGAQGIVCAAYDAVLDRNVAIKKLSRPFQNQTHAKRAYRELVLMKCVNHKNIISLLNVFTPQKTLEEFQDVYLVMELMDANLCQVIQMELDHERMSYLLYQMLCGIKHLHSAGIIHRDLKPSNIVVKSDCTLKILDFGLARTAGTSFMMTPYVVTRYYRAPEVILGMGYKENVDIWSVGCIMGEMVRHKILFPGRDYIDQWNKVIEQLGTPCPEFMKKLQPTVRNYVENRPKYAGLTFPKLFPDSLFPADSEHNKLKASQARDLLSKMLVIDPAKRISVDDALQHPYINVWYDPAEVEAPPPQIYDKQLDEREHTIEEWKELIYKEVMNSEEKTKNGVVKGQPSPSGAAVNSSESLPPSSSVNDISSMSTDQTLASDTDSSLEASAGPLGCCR

[21] = target: T21, KIT(D816V) (Homo sapiens, UniProt P10721, D816V)
T21 construct: purchased DiscoveRx KINOMEscan

[22] = target: T22, EPHA4 (Homo sapiens, UniProt P54764)
T22 construct: purchased DiscoveRx KINOMEscan

[23] = target: T23, PRKD3 (Homo sapiens, UniProt O94806)
T23 construct: purchased DiscoveRx KINOMEscan

[24] = target: T24, PLK2 (Homo sapiens, UniProt Q9NYY3)
T24 construct: purchased DiscoveRx KINOMEscan

[25] = target: T25, WEE1 (Homo sapiens, UniProt P30291)
T25 construct: purchased DiscoveRx KINOMEscan

[26] = target: T26, FLT1 (Homo sapiens, UniProt P17948)
T26 construct: purchased DiscoveRx KINOMEscan

[27] = target: T27, QSK (Homo sapiens, UniProt Q9Y2K2)
T27 construct: purchased DiscoveRx KINOMEscan

[28] = target: T28, KIT (Homo sapiens, UniProt P10721)
T28 construct: purchased DiscoveRx KINOMEscan

[29] = target: T29, BTK (Homo sapiens, UniProt Q06187)
T29 construct: purchased DiscoveRx KINOMEscan

[30] = target: T30, DLK (Homo sapiens, UniProt Q12852)
T30 construct: purchased DiscoveRx KINOMEscan

[31] = target: T31, TSSK1B (Homo sapiens, UniProt Q9BXA7)
T31 construct: purchased DiscoveRx KINOMEscan
T31 sequence (Q9BXA7 whole entry): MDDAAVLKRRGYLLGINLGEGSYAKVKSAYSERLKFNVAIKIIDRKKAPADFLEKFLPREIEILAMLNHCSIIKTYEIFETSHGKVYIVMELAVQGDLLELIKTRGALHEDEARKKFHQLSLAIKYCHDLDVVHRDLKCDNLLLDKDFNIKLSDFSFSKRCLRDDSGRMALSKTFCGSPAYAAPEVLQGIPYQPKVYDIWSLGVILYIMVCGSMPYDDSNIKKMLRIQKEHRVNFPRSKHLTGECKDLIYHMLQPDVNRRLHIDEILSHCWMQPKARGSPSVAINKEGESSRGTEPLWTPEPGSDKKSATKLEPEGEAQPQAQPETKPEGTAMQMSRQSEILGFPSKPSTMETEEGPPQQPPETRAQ

[32] = target: T32, ICK (Homo sapiens, UniProt Q9UPZ9)
T32 construct: purchased DiscoveRx KINOMEscan

[33] = target: T33, RIPK4 (Homo sapiens, UniProt P57078)
T33 construct: purchased DiscoveRx KINOMEscan

[34] = target: T34, TLK1 (Homo sapiens, UniProt Q9UKI8)
T34 construct: purchased DiscoveRx KINOMEscan

[35] = target: T35, DRAK2 (Homo sapiens, UniProt O94768)
T35 construct: purchased DiscoveRx KINOMEscan

[36] = target: T36, IKK-epsilon (Homo sapiens, UniProt Q14164)
T36 construct: purchased DiscoveRx KINOMEscan

T1 sequence (Q04912 25-1400): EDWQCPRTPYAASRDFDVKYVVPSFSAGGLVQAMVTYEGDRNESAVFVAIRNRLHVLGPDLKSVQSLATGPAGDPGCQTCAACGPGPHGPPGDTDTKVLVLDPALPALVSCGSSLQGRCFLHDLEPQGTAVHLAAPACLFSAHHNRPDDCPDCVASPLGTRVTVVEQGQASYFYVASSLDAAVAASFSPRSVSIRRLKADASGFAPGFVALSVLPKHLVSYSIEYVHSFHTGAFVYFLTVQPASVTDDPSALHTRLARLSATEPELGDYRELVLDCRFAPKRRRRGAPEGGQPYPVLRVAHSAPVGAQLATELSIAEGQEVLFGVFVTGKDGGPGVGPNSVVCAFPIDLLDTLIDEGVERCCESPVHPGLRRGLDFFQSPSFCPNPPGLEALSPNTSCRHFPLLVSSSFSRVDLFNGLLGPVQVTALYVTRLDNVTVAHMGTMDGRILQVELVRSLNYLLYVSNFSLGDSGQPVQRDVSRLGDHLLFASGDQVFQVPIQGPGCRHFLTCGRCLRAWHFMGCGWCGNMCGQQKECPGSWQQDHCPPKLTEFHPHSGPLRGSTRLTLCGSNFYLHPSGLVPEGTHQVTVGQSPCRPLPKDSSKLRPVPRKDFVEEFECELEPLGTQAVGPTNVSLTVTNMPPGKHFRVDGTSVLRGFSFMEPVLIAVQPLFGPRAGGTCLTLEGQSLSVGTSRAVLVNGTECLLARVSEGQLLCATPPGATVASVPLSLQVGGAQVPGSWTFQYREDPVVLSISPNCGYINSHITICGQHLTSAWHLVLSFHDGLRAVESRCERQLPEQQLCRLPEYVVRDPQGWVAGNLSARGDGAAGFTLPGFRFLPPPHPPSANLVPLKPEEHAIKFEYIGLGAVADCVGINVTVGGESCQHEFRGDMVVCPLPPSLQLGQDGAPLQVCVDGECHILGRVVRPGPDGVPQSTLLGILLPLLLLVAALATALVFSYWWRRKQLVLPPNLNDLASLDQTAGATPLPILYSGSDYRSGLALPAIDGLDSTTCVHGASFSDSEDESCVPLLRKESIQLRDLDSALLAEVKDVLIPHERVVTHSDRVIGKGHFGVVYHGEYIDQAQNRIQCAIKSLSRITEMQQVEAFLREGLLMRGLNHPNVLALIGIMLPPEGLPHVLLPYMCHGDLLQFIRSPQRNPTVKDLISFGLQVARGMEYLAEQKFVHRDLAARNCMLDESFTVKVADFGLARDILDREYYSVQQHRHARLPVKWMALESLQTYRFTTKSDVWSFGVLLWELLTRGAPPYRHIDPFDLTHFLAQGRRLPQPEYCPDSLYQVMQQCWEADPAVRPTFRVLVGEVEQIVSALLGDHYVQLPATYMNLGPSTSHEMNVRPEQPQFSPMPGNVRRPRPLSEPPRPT

Q: Which results are given for CCN(C(=O)CO)[C@H]1CN(/C(=N\C#N)Nc2cccc(OC(F)F)c2)N=C1c1ccc(Cl)c(Cl)c1 [(S)-4]?
A: remaining binding at 1 µM [1]: 81%; remaining binding at 1 µM [2]: 86%; remaining binding at 1 µM [3]: 91%; remaining binding at 1 µM [4]: 100%; remaining binding at 1 µM [5]: 100%; remaining binding at 1 µM [6]: 98%; remaining binding at 1 µM [7]: 100%; remaining binding at 1 µM [8]: 51%; remaining binding at 1 µM [9]: 100%; remaining binding at 1 µM [10]: 82%; remaining binding at 1 µM [11]: 89%; remaining binding at 1 µM [12]: 100%; remaining binding at 1 µM [13]: 100%; remaining binding at 1 µM [14]: 100%; remaining binding at 1 µM [15]: 96%; remaining binding at 1 µM [16]: 92%; remaining binding at 1 µM [17]: 86%; remaining binding at 1 µM [18]: 93%; remaining binding at 1 µM [19]: 82%; remaining binding at 1 µM [20]: 100%; remaining binding at 1 µM [21]: 86%; remaining binding at 1 µM [22]: 90%; remaining binding at 1 µM [23]: 99%; remaining binding at 1 µM [24]: 83%; remaining binding at 1 µM [25]: 100%; remaining binding at 1 µM [26]: 95%; remaining binding at 1 µM [27]: 94%; remaining binding at 1 µM [28]: 100%; remaining binding at 1 µM [29]: 79%; remaining binding at 1 µM [30]: 94%; remaining binding at 1 µM [31]: 79%; remaining binding at 1 µM [32]: 99%; remaining binding at 1 µM [33]: 100%; remaining binding at 1 µM [34]: 100%; remaining binding at 1 µM [35]: 100%; remaining binding at 1 µM [36]: 99%

— paper PMC4917279 (Journal of Medicinal Chemistry, 2016)
